ChEMBL document CHEMBL4229379, “Synthesis and structure-activity relationship of novel bisindole amidines active against MDR Gram-positive and Gram-negative bacteria” (Eur J Med Chem, 2018)
Values after ≈ are worked out from the molar mass of the structure shown.

Tests used:
Citrobacter freundii = assay: Antibacterial activity against Citrobacter freundii ATCC 43864 after 18 hrs by CLSI broth microdilution method; format: functional; settings: ATCC 43864, 18 h
[1] = system: Staphylococcus epidermidis; assay: Antibacterial activity against methicillin-resistant Staphylococcus epidermidis 12-8 after 18 hrs by CLSI broth microdilution method; format: functional; settings: 12-8, 18 h
Klebsiella pneumoniae [2] = assay: Antibacterial activity against extended-spectrum beta-lactamase harboring Klebsiella pneumoniae ATCC 700603 after 18 hrs by CLSI broth microdilution method; format: functional; settings: Klebsiella pneumoniae, 700603, 18 h
Proteus mirabilis = assay: Antibacterial activity against Proteus mirabilis 12-6 after 18 hrs by CLSI broth microdilution method; format: functional; settings: 12-6, 18 h
Enterobacter cloacae = assay: Antibacterial activity against Enterobacter cloacae ATCC 43560 after 18 hrs by CLSI broth microdilution method; format: functional; settings: ATCC 43560, 18 h
Enterococcus faecalis [3] = assay: Antibacterial activity against vancomycin-sensitive Enterococcus faecalis ATCC 29212 after 18 hrs by CLSI broth microdilution method; format: functional; settings: ATCC 29212, 18 h
[4] = system: Stenotrophomonas maltophilia; assay: Antibacterial activity against Stenotrophomonas maltophilia ATCC 13636 after 18 hrs by CLSI broth microdilution method; format: functional; settings: ATCC 13636, 18 h
[5] = system: Staphylococcus epidermidis; assay: Antibacterial activity against methicillin-sensitive Staphylococcus epidermidis 12-6 after 18 hrs by CLSI broth microdilution method; format: functional; settings: 12-6, 18 h
Staphylococcus aureus [6] = assay: Antibacterial activity against methicillin-sensitive Staphylococcus aureus 12-28 after 18 hrs by CLSI broth microdilution method; format: functional; settings: 12-28, 18 h
Pseudomonas aeruginosa [7] = assay: Antibacterial activity against Pseudomonas aeruginosa 12-16 after 18 hrs by CLSI broth microdilution method; format: functional; settings: 12-16, 18 h
Staphylococcus aureus [8] = assay: Antibacterial activity against methicillin-sensitive Staphylococcus aureus ATCC 29213 after 18 hrs by CLSI broth microdilution method; format: functional; settings: ATCC 29213, 18 h
[9] = system: Acinetobacter calcoaceticus; assay: Antibacterial activity against Acinetobacter calcoaceticus ATCC 19606 after 18 hrs by CLSI broth microdilution method; format: functional; settings: ATCC 19606, 18 h
Escherichia coli [10] = assay: Antibacterial activity against extended-spectrum beta-lactamase deficient Escherichia coli 12-14 after 18 hrs by CLSI broth microdilution method; format: functional; settings: 12-14, 18 h
Staphylococcus aureus [11] = assay: Antibacterial activity against methicillin-resistant Staphylococcus aureus 12-33 after 18 hrs by CLSI broth microdilution method; format: functional; settings: 12-33, 18 h
Escherichia coli [12] = assay: Antibacterial activity against extended-spectrum beta-lactamase harboring Escherichia coli 12-15 after 18 hrs by CLSI broth microdilution method; format: functional; settings: 12-15, 18 h
Klebsiella aerogenes = assay: Antibacterial activity against Enterobacter aerogenes ATCC 13048 after 18 hrs by CLSI broth microdilution method; format: functional; settings: ATCC 13048, 18 h
Escherichia coli [13] = assay: Antibacterial activity against extended-spectrum beta-lactamase deficient Escherichia coli 1515 after 18 hrs by CLSI broth microdilution method; format: functional; settings: Escherichia coli, 1515, 18 h
Enterococcus faecalis [14] = assay: Antibacterial activity against vancomycin-sensitive Enterococcus faecalis 12-5 after 18 hrs by CLSI broth microdilution method; format: functional; settings: 12-5, 18 h
Klebsiella pneumoniae [15] = assay: Antibacterial activity against extended-spectrum beta-lactamase harboring Klebsiella pneumoniae 12-8 after 18 hrs by CLSI broth microdilution method; format: functional; settings: 12-8, 18 h
Klebsiella pneumoniae [16] = assay: Antibacterial activity against extended-spectrum beta-lactamase deficient Klebsiella pneumoniae 7 after 18 hrs by CLSI broth microdilution method; format: functional; settings: Klebsiella pneumoniae, 7, 18 h
Enterococcus faecalis [17] = assay: Antibacterial activity against vancomycin-resistant Enterococcus faecalis ATCC 51299 after 18 hrs by CLSI broth microdilution method; format: functional; settings: ATCC 51299, 18 h
[18] = Cytotoxicity against HEK293T cells assessed as reduction in cell viability after 48 hrs by MTS assay; format: cell-based, HEK-293T; settings: human
Proteus vulgaris = assay: Antibacterial activity against Proteus vulgaris ATCC 29905 after 18 hrs by CLSI broth microdilution method; format: functional; settings: ATCC 29905, 18 h
Enterococcus faecium [19] = assay: Antibacterial activity against vancomycin-sensitive Enterococcus faecium 12-3 after 18 hrs by CLSI broth microdilution method; format: functional; settings: 12-3, 18 h
Escherichia coli [20] = assay: Antibacterial activity against extended-spectrum beta-lactamase deficient Escherichia coli ATCC 25922 after 18 hrs by CLSI broth microdilution method; format: functional; settings: ATCC 25922, 18 h
Providencia rettgeri = assay: Antibacterial activity against Providencia rettgeri ATCC 31052 after 18 hrs by CLSI broth microdilution method; format: functional; settings: ATCC 31052, 18 h
Staphylococcus aureus [21] = assay: Antibacterial activity against methicillin-sensitive Staphylococcus aureus 15 after 18 hrs by CLSI broth microdilution method; format: functional; settings: Staphylococcus aureus, 15, 18 h
Serratia marcescens = assay: Antibacterial activity against Serratia marcescens ATCC 21074 after 18 hrs by CLSI broth microdilution method; format: functional; settings: ATCC 21074, 18 h
Enterococcus faecalis [22] = assay: Antibacterial activity against vancomycin-resistant Enterococcus faecalis 09-9 after 18 hrs by CLSI broth microdilution method; format: functional; settings: 09-9, 18 h
[23] = system: Staphylococcus epidermidis; assay: Antibacterial activity against methicillin-sensitive Staphylococcus epidermidis ATCC 12228 after 18 hrs by CLSI broth microdilution method; format: functional; settings: ATCC 12228, 18 h
Klebsiella pneumoniae [24] = assay: Antibacterial activity against new delhi metallo-beta-lactamase-1 harboring Klebsiella pneumoniae ATCC BAA-2146 after 18 hrs by CLSI broth microdilution method; format: functional; settings: ATCC BAA-2146, 18 h
Klebsiella pneumoniae [25] = assay: Antibacterial activity against extended-spectrum beta-lactamase deficient Klebsiella pneumoniae 12-4 after 18 hrs by CLSI broth microdilution method; format: functional; settings: 12-4, 18 h
Enterococcus faecium [26] = assay: Antibacterial activity against vancomycin-resistant Enterococcus faecium 12-1 after 18 hrs by CLSI broth microdilution method; format: functional; settings: 12-1, 18 h
Staphylococcus aureus [27] = assay: Antibacterial activity against methicillin-resistant Staphylococcus aureus ATCC 33591 after 18 hrs by CLSI broth microdilution method; format: functional; settings: ATCC 33591, 18 h
Pseudomonas aeruginosa [28] = assay: Antibacterial activity against Pseudomonas aeruginosa ATCC 27853 after 18 hrs by CLSI broth microdilution method; format: functional; settings: ATCC 27853, 18 h
Pseudomonas aeruginosa [29] = assay: Antibacterial activity against Pseudomonas aeruginosa PAO1 after 18 hrs by CLSI broth microdilution method; format: functional; settings: PAO1, 18 h
Enterococcus faecium [30] = assay: Antibacterial activity against vancomycin-resistant Enterococcus faecium ATCC 700221 after 18 hrs by CLSI broth microdilution method; format: functional; settings: ATCC 700221, 18 h

Compound | MIC (Citrobacter freundii) [mg/L] | MIC [1] [mg/L] | MIC (Klebsiella pneumoniae [2]) [mg/L] | MIC (Proteus mirabilis) [mg/L] | MIC (Enterobacter cloacae) [mg/L] | MIC (Enterococcus faecalis [3]) [mg/L] | MIC [4] [mg/L] | MIC [5] [mg/L] | MIC (Staphylococcus aureus [6]) [mg/L] | MIC (Pseudomonas aeruginosa [7]) [mg/L] | MIC (Staphylococcus aureus [8]) [mg/L] | MIC [9] [mg/L] | MIC (Escherichia coli [10]) [mg/L] | MIC (Staphylococcus aureus [11]) [mg/L] | MIC (Escherichia coli [12]) [mg/L] | MIC (Klebsiella aerogenes) [mg/L] | MIC (Escherichia coli [13]) [mg/L] | MIC (Enterococcus faecalis [14]) [mg/L] | MIC (Klebsiella pneumoniae [15]) [mg/L] | MIC (Klebsiella pneumoniae [16]) [mg/L] | also measured
N=C(c1ccc2cc(-c3ccc(-c4cc5ccc(C(=N)N6CCCC6)cc5[nH]4)cc3)[nH]c2c1)N1CCCC1 | 8 (≈ 16 µM) | 1 (≈ 2 µM) | 16 (≈ 32 µM) | 8 (≈ 16 µM) | 8 (≈ 16 µM) | 4 (≈ 7.99 µM) | 16 (≈ 32 µM) | 0.25 (≈ 0.499 µM) | 2 (≈ 3.99 µM) | 64 (≈ 128 µM) | 2 (≈ 3.99 µM) | 16 (≈ 32 µM) | 4 (≈ 7.99 µM) | 2 (≈ 3.99 µM) | 4 (≈ 7.99 µM) | 8 (≈ 16 µM) | 4 (≈ 7.99 µM) | 4 (≈ 7.99 µM) | 8 (≈ 16 µM) | 8 (≈ 16 µM) | MIC (Enterococcus faecalis [17]): 8 mg/L (≈ 16 µM); CC50 at 48 h [18]: 4.15 mg/L (≈ 8.29 µM); MIC (Proteus vulgaris): 8 mg/L (≈ 16 µM); MIC (Enterococcus faecium [19]): 4 mg/L (≈ 7.99 µM); MIC (Escherichia coli [20]): 4 mg/L (≈ 7.99 µM); MIC (Providencia rettgeri): 8 mg/L (≈ 16 µM); MIC (Staphylococcus aureus [21]): 2 mg/L (≈ 3.99 µM); MIC (Serratia marcescens): 64 mg/L (≈ 128 µM); MIC (Enterococcus faecalis [22]): 4 mg/L (≈ 7.99 µM); MIC [23]: 0.25 mg/L (≈ 0.499 µM); MIC (Klebsiella pneumoniae [24]): 8 mg/L (≈ 16 µM); MIC (Klebsiella pneumoniae [25]): 8 mg/L (≈ 16 µM); MIC (Enterococcus faecium [26]): 4 mg/L (≈ 7.99 µM); MIC (Staphylococcus aureus [27]): 2 mg/L (≈ 3.99 µM); MIC (Pseudomonas aeruginosa [28]): > 128 mg/L; MIC (Pseudomonas aeruginosa [29]): > 128 mg/L; MIC (Enterococcus faecium [30]): 4 mg/L (≈ 7.99 µM)
CN(C)C(=N)c1ccc2cc(-c3ccc(-c4cc5ccc(C(=N)N(C)C)cc5[nH]4)nc3)[nH]c2c1 | 16 (≈ 35.6 µM) | 1 (≈ 2.22 µM) | > 128 | > 128 | 8 (≈ 17.8 µM) | 4 (≈ 8.9 µM) | 128 (≈ 285 µM) | 2 (≈ 4.45 µM) | 1 (≈ 2.22 µM) | > 128 | 1 (≈ 2.22 µM) | > 128 | 4 (≈ 8.9 µM) | 2 (≈ 4.45 µM) | 4 (≈ 8.9 µM) | 16 (≈ 35.6 µM) | 4 (≈ 8.9 µM) | 4 (≈ 8.9 µM) | 32 (≈ 71.2 µM) | 16 (≈ 35.6 µM) | MIC (Enterococcus faecalis [17]): 4 mg/L (≈ 8.9 µM); CC50 at 48 h [18]: 11.7 mg/L (≈ 26 µM); MIC (Proteus vulgaris): 16 mg/L (≈ 35.6 µM); MIC (Enterococcus faecium [19]): 4 mg/L (≈ 8.9 µM); MIC (Escherichia coli [20]): 4 mg/L (≈ 8.9 µM); MIC (Providencia rettgeri): 16 mg/L (≈ 35.6 µM); MIC (Staphylococcus aureus [21]): 1 mg/L (≈ 2.22 µM); MIC (Serratia marcescens): > 128 mg/L; MIC (Enterococcus faecalis [22]): 4 mg/L (≈ 8.9 µM); MIC [23]: 0.5 mg/L (≈ 1.11 µM); MIC (Klebsiella pneumoniae [24]): 32 mg/L (≈ 71.2 µM); MIC (Klebsiella pneumoniae [25]): 32 mg/L (≈ 71.2 µM); MIC (Enterococcus faecium [26]): 2 mg/L (≈ 4.45 µM); MIC (Staphylococcus aureus [27]): 1 mg/L (≈ 2.22 µM); MIC (Pseudomonas aeruginosa [28]): 64 mg/L (≈ 142 µM); MIC (Pseudomonas aeruginosa [29]): > 128 mg/L; MIC (Enterococcus faecium [30]): 4 mg/L (≈ 8.9 µM)
